This note sets out measurements from US9023986B2, “Glucose-dependent insulinotropic peptide analogs” (Hoffmann-La Roche Inc., priority 2010, dated 2015).

Non-standard residues stand in square brackets, D forms with d. Residues, ends and D or L forms follow the SMILES beside them.

The nature of series [1]: stability in Hannover Wistar rat plasma. The format is in vitro ADME. Particulars: for stability in rat plasma (in words): acceptance range 75-125%. As to the method:
(§1) The following study was conducted to assess the stability of the compound of Example 19 in Hannover Wistar rat and human plasma after 4 and 24 hours.
(§2) 2.08 mg of the compound of Example 19 was weighed out and placed in a 4 mL amber vial. To this was added 1.0 mL DMSO. The vial was carefully vortexed to produce a 573 μM stock solution of the compound.
(§3) Hannover Wistar rat plasma and human plasma (anti-coagulant sodium EDTA) were pre-warmed to 37° C. for 30 minutes in a water bath. Rat plasma pH was 7.45 and human plasma pH was 7.47. 1.5 mL microcentrifuge vials were used.
(§4) 8.70 μL of 573 μM stock solution of the compound of Example 19 was added to 491.34 μL of the rat plasma and placed into one vial. 8.74 μL of 573 μM stock solution of the compound of Example 19 was added to 491.34 μL of the human plasma and placed into another vial. The two vials were gently vortexed ensuring proper mixing.
(§5) Six new vials were labeled as follows: rat T0, rat T4, rat T24, human T0, human T4, human T24. To each of these vials, […] of treated plasma was added. The T4 and T24 vials were capped and placed in a 37° C. incubator for 4 and 24 hours, respectively.
(§6) To each of the two T0 vials, 50 µL of Sorensen buffer and 200 μL 1.0% acetic acid in acetonitrile were added. The T0 vials were then capped, vortexed and centrifuged at 10000×g for 10 minutes. Upon completion of centrifugation, 100 μL of the supernatant of each vial was added to a separate well in a 96-well injection block. 200 μL of 0.1% acetic acid in Milli-Q® water (Millipore) was then added to each well.
(§7) The above procedure as written with respect to the T0 vials was repeated for the two T4 vials at the 4 hour timepoint and the T24 vials at the 24 hour timepoint. With each timepoint a fresh T0 sample was prepared, as described above, to ensure there was no sample degradation.
(§8) All samples were analyzed by LC/MS/MS. The resulting chromatographs were processed to obtain peaks areas for each sample. The percent of compound remaining at each timepoint as compared with the amount present in the comparison T0 sample was calculated.

A short description of series [2]: stability in human plasma. The series is classed as in vitro ADME. As for the experimental part: as §1, §2, §3, §4, §5, §6, §7, §8
Series [3] addresses T1, human GIPR (Homo sapiens, UniProt P48546).
T1 construct: host or cells: CHO-K1
T1 sequence (P48546 22-466): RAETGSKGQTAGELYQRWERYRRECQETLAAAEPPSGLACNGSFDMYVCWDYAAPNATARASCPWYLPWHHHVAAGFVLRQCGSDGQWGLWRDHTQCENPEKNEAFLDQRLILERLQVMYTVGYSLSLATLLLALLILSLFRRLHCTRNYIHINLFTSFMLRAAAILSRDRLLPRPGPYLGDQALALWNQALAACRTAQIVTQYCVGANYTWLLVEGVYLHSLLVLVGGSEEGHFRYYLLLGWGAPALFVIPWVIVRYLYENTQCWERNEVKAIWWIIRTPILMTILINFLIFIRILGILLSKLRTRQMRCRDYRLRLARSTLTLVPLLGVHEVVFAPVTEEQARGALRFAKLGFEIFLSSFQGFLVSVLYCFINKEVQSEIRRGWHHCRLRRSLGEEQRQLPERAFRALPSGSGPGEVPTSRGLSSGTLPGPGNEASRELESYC
Put plainly: cAMP production in CHO-K1 cells expressing human GIPR (LANCE cAMP assay). Conditions: CHO-K1, read-out: % activation of cAMP (maximal stimulation). The format is cell-based. As to the method: CHO—K1 cells expressing human GIPR were obtained from DiscoverX Corporation (Fremont, Calif.). The cells were cultured in Ham's F-12 nutrient media supplemented with 10% foetal bovine serum, 800 μg/ml geneticin, 300 μg/ml hydromycin, 2 mM L-glutamine, and Penicillin-streptomycin (100 units, 100 μg) at 37° C. in a 5% CO2 incubator. The cells were harvested at 90% confluence.
The cells were suspended in Ham's F-12 nutrient media to a concentration of 200,000 cells/ml. The cells were then plated in a 384 well plate at with […] of the suspension added per well. The cells were incubated overnight at 37° C. in a 5% CO2 incubator.
The activity of the compounds was determined by stimulating the CHO—K1 cells with the test compound, and measuring the levels of cAMP produced. The activity of the compounds was compared to the activity of native GIP, as GIP stimulates cAMP production. 6 μl of the test compound in stimulation buffer (990 ml Hank's Balanced Salt solution (HBSS) (1×) (Invitrogen Corp #14025-092), 10 ml Hepes buffer solution (1 mol·L) (Invitrogen Corp 15630-080), 1 g BSA (final 0.1%), and 1 ml IBMX 250 mM stock prepared fresh in DMSO (Sigma-Aldrich 15879)) were added to cells, followed by 6 μl of Alexa Fluor® 647-anti cAMP antibody (Perkin Elmer) in stimulation buffer. […] The well plate was centrifuged for 3 min at 300 rpm, and incubated at room temperature for 45 minutes. 12 μl of detection mixture (biotin cAMP and EUW8044 labeled streptavidin (Eu-SA) in cAMP Detection Buffer (Perkin Elmer)) was added and incubated for 60 min at room temperature.
The levels of cAMP produced were measured according to the detailed protocol outlined in the Perkin Elmer LANCE cAMP Assay Perkin Elmer Lance cAMP Kit manual. The activity of the compounds was compared to the activity of native GIP.
The plates are read on a TRF detection instrument, EnVision® (Perkin Elmer) (excitation at 340 nm and emission at 665 nm). The values of the cAMP signal are obtained from the standard cAMP curve and used to determine the amount of maximal stimulation, and EC50 for stimulating the cAMP signal.
(cAMP levels reflect the balance of adenylyl cyclase and phosphodiesterase activity.)

In general, fraction remaining refers to what is left of the initial amount, in per cent. With `CC[C@H](C)[C@H](NC(=O)[C@H](C)NC(=O)[C@H](CC(=O)O)NC(=O)[C@H](CCSC)NC(=O)[C@H](C)NC(=O)[C@@H](NC(=O)[C@H](CO)NC(=O)[C@H](Cc1ccc(O)cc1)NC(=O)[C@H](CC(=O)O)NC(=O)[C@H](CO)NC(=O)[C@@H](NC(=O)[C@H](Cc1ccccc1)NC(=O)[C@@H](NC(=O)CNC(=O)[C@H](CCC(=O)O)NC(=O)[C@H](C)NC(=O)[C@@H](Cc1ccc(O)cc1)NC(C)=O)[C@@H](C)O)[C@@H](C)CC)[C@@H](C)CC)C(=O)N[C@@H](Cc1c[nH]cn1)C(=O)N[C@@H](CCC(N)=O)C(=O)N[C@@H](CCC(N)=O)C(=O)N[C@@H](CC(=O)O)C(=O)N[C@@H](Cc1ccccc1)C(=O)N[C@H](C(=O)N[C@@H](CC(N)=O)C(=O)N[C@@H](Cc1c[nH]c2ccccc12)C(=O)N[C@@H](CC(C)C)C(=O)N[C@@H](CC(C)C)C(=O)N[C@@H](C)C(=O)N[C@@H](CCC(N)=O)C(=O)N[C@@H](CCCCN)C(N)=O)C(C)C` [Example 19] (Ac-[dY]AEGTFISDYSIAMDAIHQQDFVNWLLAQK-NH2), the “% Remaining 4 hr, Rat” value in series [1] (10 uM, 37° C., 4 hr, vs T0 sample, LC/MS/MS) is listed as 124.7%. Further, the figures for the “stability in rat plasma (in words)” value in series [1] (4 hours) and in series [1] (24 hour timepoint) were “stable” and “slightly below the acceptance range”, respectively. For the same compound, the share remaining at 24 h, 10 µM in series [1] (Hannover Wistar, pH 7.45, 10 uM, 37° C., 24 hr, vs T0 sample, LC/MS/MS) amounted to 72.7%; in series [2] (pH 7.47, 10 uM, 37° C., 24 hr, vs T0 sample, LC/MS/MS), 75.9%. Also, in series [2] (both the 4 hour and the 24 hour timepoints), the “stability in human plasma (in words)” value is recorded as “stable”. Further, in series [2] (pH 7.47, 10 uM, 37° C., 4 hr, vs T0 sample, LC/MS/MS), the share remaining at 4 h, 10 µM came to 93.6%. The Emax in series [3] was 100%.
